For the experiment, the target named is PI3Kalpha (Homo sapiens (Human), UniProt P42336). To be noted: read-out: IC50 PI3K.
Sequence of PI3Kalpha (P42336 whole entry, looked up): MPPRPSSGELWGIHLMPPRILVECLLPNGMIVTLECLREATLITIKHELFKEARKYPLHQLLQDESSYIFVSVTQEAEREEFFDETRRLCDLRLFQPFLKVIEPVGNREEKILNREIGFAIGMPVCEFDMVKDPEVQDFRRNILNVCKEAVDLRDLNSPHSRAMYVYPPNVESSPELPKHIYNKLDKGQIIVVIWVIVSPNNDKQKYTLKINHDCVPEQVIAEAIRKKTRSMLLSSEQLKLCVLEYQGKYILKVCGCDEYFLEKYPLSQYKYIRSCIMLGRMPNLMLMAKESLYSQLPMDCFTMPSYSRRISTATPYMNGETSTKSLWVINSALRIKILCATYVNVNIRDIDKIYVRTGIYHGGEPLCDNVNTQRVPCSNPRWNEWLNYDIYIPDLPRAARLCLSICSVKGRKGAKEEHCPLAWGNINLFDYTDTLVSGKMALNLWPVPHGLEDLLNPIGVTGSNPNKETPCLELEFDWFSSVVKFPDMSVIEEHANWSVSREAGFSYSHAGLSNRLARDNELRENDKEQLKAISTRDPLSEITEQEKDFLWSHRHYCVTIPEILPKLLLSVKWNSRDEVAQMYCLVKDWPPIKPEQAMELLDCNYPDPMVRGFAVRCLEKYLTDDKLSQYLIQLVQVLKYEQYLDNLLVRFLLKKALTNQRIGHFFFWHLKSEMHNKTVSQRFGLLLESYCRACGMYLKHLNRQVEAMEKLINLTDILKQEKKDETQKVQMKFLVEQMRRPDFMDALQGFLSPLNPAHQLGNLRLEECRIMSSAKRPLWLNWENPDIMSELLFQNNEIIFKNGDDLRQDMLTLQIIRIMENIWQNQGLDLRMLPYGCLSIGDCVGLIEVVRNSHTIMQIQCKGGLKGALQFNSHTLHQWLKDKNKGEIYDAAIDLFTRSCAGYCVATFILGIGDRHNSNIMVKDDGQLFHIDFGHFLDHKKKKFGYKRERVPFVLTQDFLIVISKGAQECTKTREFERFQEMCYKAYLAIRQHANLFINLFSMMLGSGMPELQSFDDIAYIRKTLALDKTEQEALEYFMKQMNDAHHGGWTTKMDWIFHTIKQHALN
`CCc1ncnc(-c2ccc(C(=O)N3CCN(CC(F)(F)F)CC3)c(F)c2)c1C#Cc1ccc(N)nc1` [Example D-69]: the half-inhibitory concentration (IC50) amounted to 133 nM.
For `CCc1ncnc(-c2cc(F)c(C(=O)N3CCNCC3)c(F)c2)c1C#Cc1ccc(N)nc1` [Example E-14], the IC50 is 353 nM.
As for `CCc1ncnc(-c2ccc(C(=O)N3CCC4(CCN(C)C4)C3)c(OC)c2)c1C#Cc1ccc(N)nc1` (stereo not shown) [Example E-66], the figure is 662 nM.
As for `CCc1ncnc(-c2ccc(C(=O)N3CCC(N4CCCCCC4)CC3)c(C)c2)c1C#Cc1ccc(N)nc1` [Example E-102], the figure is 289 nM; as for `CCc1ncnc(-c2cccc(C(=O)N(CC)CC)c2)c1C#Cc1ccc(N)nc1` [Example C-44], 188 nM; as for `CCc1ncnc(-c2ccc(C(=O)N3CCNCC3)c(C)c2)c1C#Cc1ccc(N)nc1` [Example E-127], 158 nM.
On to `CCc1ncnc(-c2cc(F)c(C(=O)N3CCN(C4CCOCC4)CC3)c(F)c2)c1C#Cc1ccc(N)nc1` [Example E-6], for which the IC50 worked out at 124 nM.
In the case of `CCNc1ccc(C#Cc2c(CC)ncnc2-c2ccc(C(=O)N3CCn4ccnc4C3)c(F)c2)cn1` [Example E-260], the IC50 was determined as 63.8 nM.
Regarding `CCc1ncnc(-c2ccc(C(=O)N3C[C@@H]4CCN(C(=O)OC(C)(C)C)[C@@H]4C3)c(F)c2)c1C#Cc1ccc(N)nc1` [Example E-331], the IC50 was determined as 151 nM.
Consider `CCc1ncnc(-c2cnc3ccccc3c2)c1C#Cc1ccc(N)nc1` [Example C-29], for which the IC50 worked out at 24 nM.
In the case of `CCc1ncnc(-c2ccc(C(=O)N3CCN(Cc4ncon4)CC3)c(Cl)c2)c1C#Cc1ccc(N)nc1` [Example E-342], the IC50 was found to be 137 nM.
As for `CCc1ncnc(-c2ccc(C(=O)NCC3CCN(C)C3)c(F)c2)c1C#Cc1ccc(N)nc1` [Example D-75], the IC50 amounted to 335 nM.
For the molecule `CCc1ncnc(-c2cc(F)c(C(=O)N3CCN(C4CCCC4O)CC3)c(Cl)c2)c1C#Cc1ccc(N)nc1` (stereo not shown) [Example E-308], the IC50 was determined as 63.4 nM.
Turning to `CCc1ncnc(-c2ccc(C(=O)N3CCN4CCC[C@H]4C3)c(OC(F)(F)F)c2)c1C#Cc1ccc(N)nc1` [Example E-223], the half-maximal inhibitory concentration (IC50) amounted to 157 nM.
As for `CCc1ncnc(-c2ccc(C(=O)N3CCN(CCNS(C)(=O)=O)CC3)c(Cl)c2)c1C#Cc1ccc(N)nc1` [Example E-253], the figure is 30.6 nM.
Regarding `CCc1ncnc(-c2cc(F)c(C(=O)N3CCN(CCC#N)CC3)c(Cl)c2)c1C#Cc1ccc(N)nc1` [Example E-243], the concentration for half-maximal inhibition (IC50) stood at 110 nM.
Consider `CCc1ncnc(-c2ccc(C(=O)N3CCC(OC)CC3)c(Cl)c2)c1C#Cc1ccc(N)nc1` [Example D-142], for which the IC50 was found to be 94 nM.
`CCc1ncnc(-c2cc(F)c(C(=O)N3CCN(CC)CC3)c(F)c2)c1C#Cc1ccc(N)nc1` [Example E-3]: the IC50 was 276 nM.
`CCc1ncnc(-c2ccc(C(=O)NCC3CCCN(C)C3)c(F)c2)c1C#Cc1ccc(N)nc1` [Example D-74]: the IC50 was 630 nM.
Regarding `CCc1ncnc(-c2ccc(C(=O)N3CC(O)CO3)cc2)c1C#Cc1ccc(N)nc1` [Example D-224], the IC50 is 39 nM.
For the molecule `CCCCN1CCN(C(=O)c2ccc(-c3ncnc(CC)c3C#Cc3ccc(N)nc3)cc2OC)CC1` [Example E-43], the IC50 amounted to 502 nM.
Take `CCc1ncnc(-c2cc(F)c(C(=O)N3CCC4(CC3)CN(C)C4)c(F)c2)c1C#Cc1ccc(N)nc1` [Example E-336]: the IC50 stood at 773 nM.
`CCc1ncnc(-c2cc(Cl)c(C(=O)N3CCN(CCC#N)CC3)c(Cl)c2)c1C#Cc1ccc(N)nc1` [Example E-206]: the 50% inhibitory concentration (IC50) was determined as 71.8 nM.
As for `CCOC(=O)N1CCN(C(=O)c2ccc(-c3ncnc(CC)c3C#Cc3ccc(N)nc3)cc2OC)CC1` [Example E-62], the figure is 246 nM; as for `Cc1ncnc(-c2ccc(C(=O)N3CCN(C4CCOCC4)CC3)cc2)c1C#Cc1ccc(N)nc1` [Example D-193], 65 nM; as for `CCc1ncnc(-c2ccc(C(=O)N3CCN(CCOC)CC3)c(OC)c2)c1C#Cc1ccc(N)nc1` [Example D-52], 134 nM.
As to `CCc1ncnc(-c2ccc(C(=O)N3CCN(c4ccccc4)CC3)c(F)c2)c1C#Cc1ccc(N)nc1C` [Example D-25], the IC50 is 498 nM.
For the molecule `CCc1ncnc(-c2ccc(C)nc2)c1C#Cc1ccc(N)nc1` [Example C-31], the concentration for half-maximal inhibition (IC50) worked out at 30 nM.
Turning to `CCc1ncnc(-c2cc(Cl)c(C(=O)N3CCC(C(C)O)CC3)c(Cl)c2)c1C#Cc1ccc(N)nc1` (stereo not shown) [Example E-200], the IC50 stood at 58.8 nM.
As for `CCc1ncnc(-c2ccc(C(=O)N3CCN(c4ccncc4)CC3)c(F)c2)c1C#Cc1ccc(N)nc1` [Example D-93], the IC50 turned out to be 266 nM.
As for `CCc1ncnc(-c2cc(F)c(C(=O)N3CCN(CCN)CC3)c(Cl)c2)c1C#Cc1ccc(N)nc1` [Example E-286], the figure is 527 nM.
For `CCc1ncnc(-c2ccc(C(=O)N3CCN(Cc4ccccc4)CC3)c(OC)c2)c1C#Cc1ccc(N)nc1` [Example E-69], the IC50 was determined as 415 nM.
As to `CCc1ncnc(-c2ccc(C(=O)N3CCC4(CCN(C)CC4)CC3)c(C)c2)c1C#Cc1ccc(N)nc1` [Example E-97], the IC50 came to 367 nM.
As to `CCc1ncnc(-c2ccc(C(=O)N3CCN4CCCCC4C3)c(F)c2)c1C#Cc1ccc(N)nc1C` [Example D-18], the IC50 amounted to 481 nM.
As to `CCc1ncnc(-c2ccc(C(=O)N3CCN(C(C)CO)CC3)c(F)c2)c1C#Cc1ccc(N)nc1` (stereo not shown) [Example E-292], the IC50 was 212 nM.
As to `CCc1ncnc(-c2cc(Cl)c(C(=O)N3CCN4CCC[C@H]4C3)c(Cl)c2)c1C#Cc1ccc(N)nc1` [Example E-194], the IC50 was 129 nM.
Turning to `CCc1ncnc(-c2ccc(C(=O)N3CCC(N4CCCC4)C3)c(F)c2)c1C#Cc1ccc(N)nc1` [Example D-235], the IC50 was found to be 226 nM.
As for `CCc1ncnc(-c2ccc(C(=O)N3CCC4(CCN(C)C4)C3)c(Cl)c2)c1C#Cc1ccc(N)nc1` (stereo not shown) [Example E-40], the 50% inhibitory concentration (IC50) amounted to 514 nM.
For the molecule `CCc1ncnc(-c2ccc(C(=O)N3CCC(N4CCN(C)CC4)CC3)c(Cl)c2)c1C#Cc1ccc(NC)nc1` [Example E-192], the IC50 worked out at 334 nM.
For `CCc1cc(-c2ncnc(CC)c2C#Cc2ccc(N)nc2)ccn1` [Example C-3], the IC50 came out at 40 nM.
With `CCc1ncnc(-c2ccc(C(=O)N3CCN(c4ccncc4)CC3)c(Cl)c2)c1C#Cc1ccc(N)nc1` [Example D-155], the half-inhibitory concentration (IC50) stood at 209 nM.
As for `Cc1ncnc(-c2ccc(F)c(C(=O)N3CCCCC3)c2)c1C#Cc1ccc(N)nc1` [Example C-41], the IC50 worked out at 539 nM.
As for `CCc1ncnc(-c2ccc(C(=O)N3CCN(c4ccncc4)CC3)c(C)c2)c1C#Cc1ccc(N)nc1` [Example E-131], the figure is 158 nM; as for `CCc1ncnc(-c2ccc(C(=O)N(C)CCO)c(Cl)c2)c1C#Cc1ccc(N)nc1` [Example D-34], 36 nM; as for `CCc1ncnc(-c2ccc(C(=O)N3CCC(N4CCOCC4)CC3)c(C)c2)c1C#Cc1ccc(N)nc1` [Example E-91], 179 nM.
For the molecule `CCc1ncnc(-c2cc(F)c(C(=O)N3CCC(CO)CC3)c(Cl)c2)c1C#Cc1ccc(N)nc1` [Example E-242], the IC50 was determined as 120 nM.
Consider `CCc1ncnc(-c2ccc(C(=O)N3CCN(/C(=N\C#N)NC)CC3)c(F)c2)c1C#Cc1ccc(N)nc1` [Example D-117], for which the IC50 stood at 27 nM.
With `CCCN1CCN(C(=O)c2c(F)cc(-c3ncnc(CC)c3C#Cc3ccc(N)nc3)cc2F)CC1` [Example E-4], the IC50 was determined as 133 nM.
On to `Cc1ncnc(-c2ccccc2)c1C#Cc1ccc(N)nc1` [Example C-7], for which the concentration for half-maximal inhibition (IC50) worked out at 39 nM.
On to `Cc1ncnc(-c2ccc(Cl)c(C(=O)N3CCOCC3)c2)c1C#Cc1ccc(N)nc1` [Example C-40], for which the IC50 came out at 459 nM.
As for `CCc1ncnc(-c2ccc(C(=O)N3CCC(C(C)(C)O)CC3)c(Cl)c2)c1C#Cc1ccc(N)nc1` [Example E-20], the figure is 101 nM; as for `CCc1ncnc(-c2cc(F)c(C(=O)N3CCN(CCOCCO)CC3)c(F)c2)c1C#Cc1ccc(N)nc1` [Example E-302], 113 nM; as for `CCc1ncnc(-c2ccc(C(=O)N(C)CCN3CCCC3=O)c(F)c2)c1C#Cc1ccc(N)nc1` [Example D-119], 55 nM.
On to `CCc1ncnc(-c2ccc(C(=O)N3CCNC(=O)C3)c(OC)c2)c1C#Cc1ccc(N)nc1` [Example D-59], for which the IC50 amounted to 19 nM.
Consider `CCc1ncnc(-c2ccc(C(=O)N3CCN(C)CC3)c(OC(F)(F)F)c2)c1C#Cc1ccc(N)nc1` [Example E-225], for which the IC50 came out at 224 nM.
Consider `CCc1ncnc(-c2ccc(C(=O)N3CCC(C(C)(C)O)CC3)c(F)c2)c1C#Cc1ccc(N)nc1` [Example D-79], for which the IC50 amounted to 170 nM.
Take `CCc1ncnc(-c2ccc(C(=O)N3CC[C@H](O)C3)c(F)c2)c1C#Cc1ccc(N)nc1` [Example D-203]: the IC50 amounted to 57 nM.
As for `CCc1ncnc(-c2ccc(C(=O)N3CCCCO3)cc2)c1C#Cc1ccc(N)nc1` [Example D-223], the figure is 77 nM; as for `CCc1ncnc(-c2ccc(C(=O)N3CCN(C(C)=O)CC3)c(F)c2)c1C#Cc1ccc(N)nc1C` [Example D-82], 146 nM; as for `CCc1ncnc(-c2cc(F)c(C(=O)N3CCC(CN(C)C)CC3)c(Cl)c2)c1C#Cc1ccc(N)nc1` [Example E-283], 446 nM.
For the molecule `CCc1ncnc(-c2ccc(C(=O)N3CCN(CC(F)(F)F)CC3)c(OC)c2)c1C#Cc1ccc(N)nc1` [Example D-54], the IC50 was determined as 81 nM.
Consider `CCc1ncnc(-c2ccc(C(=O)N(C)C3CCS(=O)(=O)C3)c(OC)c2)c1C#Cc1ccc(N)nc1` (stereo not shown) [Example E-61], for which the IC50 was 103 nM.
For `CCc1ncnc(-c2ccc(C(=O)N3CCNCC3)c(Cl)c2)c1C#Cc1ccc(N)nc1` [Example D-152], the IC50 came to 164 nM.
As for `CCc1ncnc(-c2cc(F)c(C(=O)N3CCN(CCOC)CC3)c(F)c2)c1C#Cc1ccc(N)nc1` [Example E-5], the figure is 78.8 nM; as for `CCc1ncnc(-c2ccc(C(=O)N(C)CC3CCN(C)CC3)c(F)c2)c1C#Cc1ccc(N)nc1` [Example D-76], 339 nM; as for `CCc1ncnc(-c2ccc(C(=O)N3CCC4(CNC4)C3)c(F)c2)c1C#Cc1ccc(N)nc1` [Example E-324], 935 nM.
As to `CCc1ncnc(-c2ccc(C(=O)N(C)CC3CCCN(C)C3)c(F)c2)c1C#Cc1ccc(N)nc1` [Example D-73], the IC50 is 324 nM.

These data come from patent US8633183B2 (priority 2010, dated 2014).
